Measured values taken from US6479662B2, “Antitumor dibenzofluorene derivatives” (Board of Regents, The University of Texas System, priority 1998, dated 2002).
Entries after “also recorded” stand apart in the source; their conditions may differ.

Tests used:
BRO human melanoma = experiment: In vitro cytotoxicity, MTT assay, 72 h continuous exposure; format: cell-based; conditions: average over runs, value above 50 = 50% inhibition not achieved at 50 μg/ml
Experimental: (§1) Every dibenzofluorene derivative was tested, as will be described below, against six to eight cultured, tumor cell lines of human and/or animal origin, at least half of which were selected from the NCI panel of test tumors. In each experiment, Adriamycin (ADR) was used as a maximally positive control.
(§2) Data are IC50 values (MTT assay) reported as μg/ml for 72 hours continuous exposure to the drug. Drugs were prepared in DMSO:PEG300 (1:1). Further, dilutions were made in a cell culture medium with fetal bovine serum.
(§3) Compounds were evaluated for solubility characteristics in vehicles which would be appropriate for use in cell culture. The compounds were added to the cell lines under continuous culture for 72 hours. Inhibition of growth relative to control cell culture was determined by the MTT method at the end of 72 hours. This is a test of the relative ability of a compound to inhibit cell growth not survival. However, inhibition of growth may reflect cell death and/or cytostasis.

[1] = test system: HL-60 human promyelocytic leukemia; experiment: as above; format: cell-based; conditions: average over runs, value above 50 = 50% inhibition not achieved at 50 μg/ml
Experimental: as §1, §2, §3

[2] = test system: HT-29 human colon adenocarcinoma; experiment: as above; format: cell-based; conditions: average over runs, value above 50 = 50% inhibition not achieved at 50 μg/ml
Experimental: as §1, §2, §3

[3] = test system: MCF-7 human breast carcinoma; experiment: as above; format: cell-based; conditions: average over runs, value above 50 = 50% inhibition not achieved at 50 μg/ml
Experimental: as §1, §2, §3

[4] = test system: OVCAR 3 human ovarian carcinoma; experiment: as above; format: cell-based; conditions: average over runs, value above 50 = 50% inhibition not achieved at 50 μg/ml
Experimental: as §1, §2, §3

[5] = test system: P388/0 murine lymphatic leukemia; experiment: as above; format: cell-based; conditions: average over runs, value above 50 = 50% inhibition not achieved at 50 μg/ml
Experimental: as §1, §2, §3

[6] = test system: six to eight cultured tumor cell lines; experiment: In vitro cytotoxicity against the panel of tumor lines (overall activity grouping); format: cell-based, human and/or animal; conditions: for anti-tumor activity (in words): summary over the tumor lines; for change in activity relative to Tx-38 (in words): structural modification of Tx-38; for activity group: grouped as determined by the majority of the results over all tumor lines; for change in activity relative to Tx-37 (in words): structural modification of Tx-37
Experimental: as §1, §2
Additional tumor lines against which the drugs were tested in certain series included L1210 (leukemia), PC3 (prostate) and several others.
as §3
ADR invariably produced the described anti-tumor effect against all tumor lines at concentrations lower than 1 μg/ml of culture media. The effect of the Tx-compounds was divided into five activity groups as described below. In all cases, if activity against a single tumor line differed radically from that against all others, notation was made of this specificity but the agent was grouped as determined by the majority of the results.

| Structure (SMILES) | average IC50 BRO (BRO human melanoma) [µg/mL] | average IC50 HL-60 [1] [µg/mL] | average IC50 HT-29 [2] [µg/mL] | average IC50 MCF-7 [3] [µg/mL] | average IC50 OVCAR-3 [4] [µg/mL] | average IC50 P388/0 [5] [µg/mL] | anti-tumor activity (in words) [6] | IC50 ([6]; Homo sapiens, all tumor lines, μg/ml of culture media, positive control, read-out: concentration producing the described anti-tumor effect against all tumor lines) [µg/mL] | change in activity relative to Tx-38 (in words) [6] | activity group [6] | change in activity relative to Tx-37 (in words) [6] |
| --- | --- | --- | --- | --- | --- | --- | --- | --- | --- | --- | --- |
| O=C(CCC(=O)N1CCCCC1)Nc1cc2c(c3ccccc13)-c1ccc3ccccc3c1C2 [Tx-38] | 46.4 | 14.9 | 34.4 | 22.8 | 39.5 | 42.9 | no significant anti-tumor activity; also recorded: little or no activity | – | – | – | – |
| COc1cccc2c1C(=O)c1c(O)c3c(c(O)c1C2=O)C[C@@](O)(C(=O)CO)C[C@@H]3O[C@H]1C[C@H](N)[C@H](O)[C@H](C)O1 [ADR, Adriamycin, reference compound] | – | – | – | – | – | – | – | < 1 | – | – | – |
| O=C(CCC(=O)N1CCCCC1)Nc1cc2c(c3ccccc13)-c1ccc3ccccc3c1C2O (centres unmarked) [Tx-67] | 14.7 | 5.6 | – | 8.9 | 8.8 | 9.2 | – | – | greatly increased the activity | – | – |
| CN1CCN(C(=O)C=CC(=O)Nc2cc3c(c4ccccc24)-c2ccc4ccccc4c2C3)CC1 [Tx-47] | 1.2 | 1.2 | 16.7 | 20.2 | 1.1 | 15.4 | – | – | – | GROUP C (These agents were effective against one-third to one-half of all tumor lines tested at levels less than 10 μg/ml) | reduced its activity significantly |
| CN1CCN(C(=O)CCC(=O)Nc2ccc3c(c2)Cc2ccccc2-3)CC1 [Tx-68, N-[2′-(9′H-fluorenyl)]-4-(4′N methyl-piperazinyl)-butane-1,4-dicarboxiamide] | – | – | – | 18.2 | 31.7 | – | – | – | – | GROUP E (These agents produced some anti-tumor effect at doses above 10 μg/ml but less than 20 μg/ml) | – |
| O=C(CCC(=O)N1CCCCC1)Nc1ccc2c(c1)Cc1ccccc1-2 [Tx-69] | – | – | – | 28.9 | – | 41.5 | – | – | – | – | – |
| CN1CCN(C(=O)CCC(=O)Nc2cc3c(c4ccccc24)-c2ccc4ccccc4c2C3)CC1 [Tx-37, N-[11′-(13′H-Dibenzo[a,g]-fluorenyl)]-4-(4′N methyl-piperazinyl)-butane-1,4-dicarboxiamide] | 1.8 | 1.6 | 1.9 | 3.0 | 1.9 | 2.0 | consistent, highly positive effects; also recorded: most active compound; also recorded: significant activities | – | – | – | – |
| O=C(CCC(=O)N1CCCCC1)Nc1cc2c(c3ccccc13)-c1ccc3ccccc3c1C2=O [Tx-51] | 47.2 | 32.0 | – | 27.0 | 16.2 | – | little or no activity | – | – | – | – |
| O=C(C=CC(=O)N1CCCCC1)Nc1cc2c(c3ccccc13)-c1ccc3ccccc3c1C2 [Tx-48, N-[11′-13′H-Dibenzo[a,g]-fluorenyl]-4-(1′-piperidinyl)-but-2-ene-1,4-dicarboxiamide] | 22.6 | 30.1 | – | 18.3 | 23.4 | – | – | – | little or no change | – | – |
| CN1CCN(C(=O)CCC(=O)Nc2cc3c(c4ccccc24)-c2ccc4ccccc4c2C3)CC1.Cl [Tx-49, N-[11′-(13′H-Dibenzo[a,g]-fluorenyl)]-4-(4′N methyl-piperazinyl hydrochloride)-butane-1,4-dicarboxiamide] | 2.5 | 2.5 | 2.5 | 5.7 | 2.8 | 3.1 | – | – | – | – | minor change in the activity |
| CN1CCN(C(=O)CCC(=O)Nc2cc3c(c4ccccc24)-c2ccc4ccccc4c2C3O)CC1 (centres unmarked) [Tx-66] | 6.0 | 2.0 | – | 5.9 | 4.2 | 2.1 | – | – | – | – | minor change in the activity |
| CN1CCN(C(=O)CCC(=O)Nc2cc3c(c4ccccc24)-c2ccc4ccccc4c2C3=O)CC1 [Tx-50] | 11.2 | 4.0 | 10.0 | 18.1 | 6.6 | 3.7 | significant activities | – | – | – | slight diminution in activity |
